The test system of assay [1] is endogenous MUC1-C. The assay can be described thus: Binding to endogenous MUC1-C in H1975 cells, coimmunoprecipitation. The assay is classed as cell-based, human. The settings on record: 5 μM FITC-GO-203 overnight, non-reducing. As for the experimental part:
(§1) Human ZR-75-1 breast cancer (ATTC) and H1975 lung cancer (ATTC) cell lines were grown in RPMI 1640 supplemented with 10% heat-inactivated fetal bovine serum (HI-FBS), 100 units/ml penicillin, and 100 μg/ml streptomycin. 293T cells were grown in DMEM with 10% HI-FBS, antibiotics, and 2 mmol/L L-glutamine. Cells were treated with FITC conjugated-GO-202 (FITC-GO-202), FITC-GO-203 or unconjugated GO-203 synthesized by the MIT Biopolymer Laboratory (Cambridge, MA) and AnaSpec, Inc (San Jose, CA). The p3XFLAG-CMV-10 (Sigma, St. Louis, MO), pEGFP-C1 and pDsRed-Monomer-N1 (Clontech, Mountain View, CA) vectors were used for transfection of rat and dog MUC1-CD and full length human MUC1 in 293T cells in the presence of Lipofectamine 2000 (Life Technologies, Grand Island, NY).
(§2) Cell lysates were prepared as described. Soluble proteins were immunoprecipitated with anti-FLAG (Sigma, St. Louis, MO), anti-MUC1-C (Thermo Fisher Scientific, Waltham, MA) or a control IgG. The precipitates and lysates not subjected to immunoprecipitation were immunoblotted with anti-MUC1-C, anti-GFP (Abcam, Cambridge, MA), anti-FLAG and anti-FITC (Life Technologies, Grand Island, NY). Reactivity was detected with horseradish peroxidase-conjugated secondary antibodies and chemiluminescence.

In assay [2] the test system is endogenous MUC1-C. The assay can be described thus: Binding to endogenous MUC1-C in ZR-75-1 cells, coimmunoprecipitation. It is filed as cell-based, human. The settings on record: 5 μM FITC-GO-203 overnight, non-reducing. As for the experimental part: as §1, §2
The subject of another assay is 293T cells. Put plainly: Localization in untransfected 293T cells, immunofluorescence microscopy. It is filed as cell-based. The settings on record: FITC-GO-203 alone, 5 μM, 3 h. As for the experimental part: as §1
(§3) 293T cells were transfected with MUC1-pDsRed-Monomer-N1 in the presence of Lipofectamine 2000 for 48 h. The cells were then incubated with FITC-GO-203 for 3 h and examined using a Nikon-deconvolution wide-field epifluorescence system with a 100x oil immersion objective. Images were captured using NIS-element software (Nikon) and analyzed by ImageJ software.

The subject of another assay is GST-MUC1-CD(AQA). The assay can be described thus: Binding to GST-MUC1-CD(AQA) mutant. The settings on record: CQC motif mutated to AQA; only background fluorescence; data not shown; FITC-labeled peptide, 1 h at 37°C. Here is the method: Binding affinities of FITC-GO-202 and FITC-GO-203 were determined by the saturation binding method. In short, 96-well glutathione- or nickel-coated plates (Thermo Fisher, Waltham, MA) were incubated with 150 μl of PBS buffer containing 21.45 μg/ml of GST-MUC1-CD, GST-MUC1-CD(AQA) or His-MUC1-CD overnight at 4°C followed by washing with 50 mM Tris and 150 mM NaCl containing 0.1% Tween-20 (TBST), and blocking with 0.5% BSA in TBS. The plates were then washed 3 times with TBST. FITC-GO-202 or FITC-GO-203 was added to the wells at 0.19 μM to 25 μM. Nonspecific binding was determined in the presence of GST alone. Plates were incubated for 1 h at 37°C on a shaker followed by washing 3 times with binding buffer. Fluorescence intensity was determined on an Infinite M1000 PRO Tecan Microplate Reader (Tecan, NC) with excitation at 490 nm and emission at 525 nm. GraphPad Prism 4.0 Software (San Diego, CA) was used to calculate the equilibrium dissociation constant (Kd) by a non-linear regression method.
Vectors expressing GST-MUC1-CD, GST-MUC1-CD(AQA) and His-MUC1-CD, GFP-MUC1-CD and FLAG-MUC1-CD have been described. His-tagged MUC1-CD (rat and dog) were cloned in pET28a vector (Clontech, Mountain View, CA) and expressed in E. coli BL21(DE3).

The subject of a further assay is DsRedMN1-MUC1. Put plainly: Localization in 293T cells expressing DsRedMN1-MUC1, immunofluorescence microscopy. It is filed as cell-based, human. The settings on record: 5 μM FITC-GO-203, 3 h. Here is the method: as §1, §3

Non-standard residues stand in square brackets, D forms with d. Residues, ends and D or L forms follow the SMILES beside them. *: point of attachment. FITC = O=C1OC2(c3ccc(O)cc3Oc3cc(O)ccc32)c2ccc(NC(=S)*)cc21

Take `N=C(N)NCCC[C@@H](NC(=O)[C@@H](CCCNC(=N)N)NC(=O)[C@@H](CS)NC(=O)[C@@H](CCC(N)=O)NC(=O)[C@@H](CS)NC(=O)[C@@H](CCCNC(=N)N)NC(=O)[C@@H](CCCNC(=N)N)NC(=O)[C@@H](CCCNC(=N)N)NC(=O)[C@@H](CCCNC(=N)N)NC(=O)[C@@H](CCCNC(=N)N)NC(=O)[C@@H](CCCNC(=N)N)NC(=O)[C@@H](CCCNC(=N)N)NC(=O)[C@@H](CCCNC(=N)N)NC(=O)[C@@H](CCCNC(=N)N)NC(=S)Nc1ccc2c(c1)C(=O)OC21c2ccc(O)cc2Oc2cc(O)ccc21)C(=O)N[C@H](CCCCN)C(=O)N[C@H](CC(N)=O)C(=O)O` [FITC-GO-203] ({FITC}-[dR][dR][dR][dR][dR][dR][dR][dR][dR][dC][dQ][dC][dR][dR][dK][dN]-OH; N-terminus and C-terminus assumed): the “interaction with MUC1-C monomeric and oligomeric forms” value with endogenous MUC1-C [1] (H1975 cells, entire immunoblots) was “interacts with the different MUC1-C monomeric and oligomeric forms”; in the assay with endogenous MUC1-C [2] (ZR-75-1 cells, entire immunoblots), “interacts with the different MUC1-C monomeric and oligomeric forms”. The “association with endogenous MUC1-C” value with endogenous MUC1-C [1] (H1975 lung cancer cells, anti-MUC1-C precipitates, anti-FITC immunoblot) is “associates with endogenous MUC1-C”. In addition, the “complex formation with endogenous MUC1-C” value in the assay with endogenous MUC1-C [2] (ZR-75-1 breast cancer cells, anti-MUC1-C precipitates, anti-FITC immunoblot) was “forms complexes with MUC1-C”. Besides, the “localization of FITC signals” value in the assay with 293T cells was “localized along the membrane and in the cytosol”. Moreover, the “interaction with GST-MUC1-CD(AQA)” value with GST-MUC1-CD(AQA) is “no interaction was evident”. In addition, the “co-localization of DsRed (MUC1) and FITC signals” value with DsRedMN1-MUC1 (293T cells expressing DsRedMN1-MUC1) is “co-localization of the DSRed and FITC signals (Red+Green→Yellow) was observed along the membrane”. The “FITC staining in cells expressing MUC1 compared to the MUC1-null setting” value with DsRedMN1-MUC1 (293T cells) is listed as “brighter”.

The values above are taken from paper PMC4534190, “Characterization of the MUC1-C Cytoplasmic Domain as a Cancer Target” (PLoS ONE, 2015).
